These results are taken from US12234463B2, “Engineered microorganisms with G3P → 3PG enzyme and/or fructose-1,6-bisphosphatase including those having synthetic or enhanced methylotrophy” (Genomatica, Inc., priority 2018, dated 2025).

Molecules are shown by their SMILES. Where two headings read alike, the source gives them in different places.

The subject of assay [1] is E. coli transketolase A (TktA). To be noted: ref. [3], cited from earlier work.
Assay [2] has as its system E. coli fructose-6-phosphate aldolase (F6P aldolase, fsa) variant A129S. The following applies: cited from earlier work.
Assay [3] has as its system E. coli fructose-6-phosphate aldolase (F6P aldolase, fsa), wild type. To be noted: cited from earlier work; for Km: purified enzyme.
Assay [4] relates to dihydroxyacetone synthase from Mycobacter sp. strain JC1 DSM 3803. The following applies: cited from earlier work.
For assay [5], the system named is B. methanolicus transketolase. The following applies: ref. [2] Markert et al., cited from earlier work.
Assay [6] has as its target T1, Bacillus methanolicus PB1 GapN (NADP-dependent glyceraldehyde-3-phosphate dehydrogenase), cds 10662A (Bacillus methanolicus, UniProt I3E1I1).
T1 sequence (I3E1I1 1-481): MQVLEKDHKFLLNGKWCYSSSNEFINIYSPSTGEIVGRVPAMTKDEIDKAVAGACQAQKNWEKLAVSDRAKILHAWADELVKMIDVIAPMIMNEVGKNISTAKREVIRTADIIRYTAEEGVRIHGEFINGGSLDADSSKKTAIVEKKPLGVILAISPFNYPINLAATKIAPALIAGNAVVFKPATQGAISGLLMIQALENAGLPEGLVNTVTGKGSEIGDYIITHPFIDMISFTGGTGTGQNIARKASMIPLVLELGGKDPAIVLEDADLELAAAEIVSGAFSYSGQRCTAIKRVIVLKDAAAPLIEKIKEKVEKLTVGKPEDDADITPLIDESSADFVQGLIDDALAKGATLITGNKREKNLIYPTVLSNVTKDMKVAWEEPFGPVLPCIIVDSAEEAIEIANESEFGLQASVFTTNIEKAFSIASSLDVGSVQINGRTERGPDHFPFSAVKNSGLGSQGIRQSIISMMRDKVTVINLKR
As to the kind of experiment: GapN vs. GapA kinetic comparison: catalytic constants of BM PB1 GapN (cds 10662A, Table 18). The format is biochemical. The following applies: fixed NADP; G3P varied.

For assay [7], the target named is T2, Bacillus methanolicus MGA3 GapN (NADP-dependent glyceraldehyde-3-phosphate dehydrogenase), cds 10663A (Bacillus methanolicus, UniProt I3EBG2).
T2 sequence (I3EBG2 1-481): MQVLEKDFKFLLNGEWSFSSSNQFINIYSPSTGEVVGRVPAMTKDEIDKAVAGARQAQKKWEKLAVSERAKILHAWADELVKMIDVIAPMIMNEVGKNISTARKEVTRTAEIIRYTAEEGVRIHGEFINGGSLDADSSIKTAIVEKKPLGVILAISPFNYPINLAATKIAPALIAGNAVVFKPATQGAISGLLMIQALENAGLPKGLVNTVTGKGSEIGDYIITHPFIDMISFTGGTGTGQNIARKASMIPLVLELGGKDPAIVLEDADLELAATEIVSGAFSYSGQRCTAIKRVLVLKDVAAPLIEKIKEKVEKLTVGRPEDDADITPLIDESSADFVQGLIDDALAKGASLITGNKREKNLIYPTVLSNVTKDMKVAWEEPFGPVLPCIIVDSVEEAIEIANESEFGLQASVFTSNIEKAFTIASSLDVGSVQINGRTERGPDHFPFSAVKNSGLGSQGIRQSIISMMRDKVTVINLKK
The assay can be described thus: GapN vs. GapA kinetic comparison: catalytic constants of BM MGA3 GapN (cds 10663A, Table 18). It counts as biochemical. To be noted: fixed NADP; G3P varied.

The test system of assay [8] is E. coli ribose 5-phosphate isomerase B (RpiB). To be noted: read-out: Michaelis constant for ribose 5-phosphate; cited from earlier work.
Assay [9] deals with E. coli ribose 5-phosphate isomerase A (RpiA). The following applies: read-out: Michaelis constant for ribose 5-phosphate; cited from earlier work.
The mark [10] stands for this setting: reaction products, read-out: KM (products).
Setting [11] is: reaction substrates, read-out: KM (substrates).
The mark [12] stands for this setting: fold reduction compared to wild type enzyme.

`O=C[C@H](O)[C@H](O)COP(=O)(O)O`: in assay [1] (setting [10]), the Km is 90 µM.
As to `O=C(CO)CO` [dihydroxyacetone], the “improved reactivity towards DHA in terms of Kcat/Km” value in [2] (fold improvement) is on record as “over 17 fold”. In [3], the Km was 35000 µM.
Regarding `C=O` [formaldehyde], in assay [4] (read-out: Km for formaldehyde), the Km was 1860 µM.
As to `O=P(O)(O)OC[C@H]1OC(O)(CO)[C@@H](O)[C@@H]1O` (stereo partly shown) [fructose 6-phosphate], in assay [3] (30 degrees C., pH 8.5, 50 mm glycylglycine buffer), the “Vmax for fructose 6-phosphate cleavage” value was 7 units/mg of protein. Moreover, the Km in [3] is 9000 µM; in assay [1] (setting [11]), 1100 µM; in assay [5] (setting [11]), 720 µM.
`O=C[C@H](O)COP(=O)(O)O` [glyceraldehyde 3-phosphate]: the Km in assay [6] was 1100 ± 300 µM; in [3] it was 800 µM; in assay [1] (setting [11]), 2100 µM; in assay [5] (setting [11]), 920 µM; in assay [7], 1600 ± 100 µM. The entries for the “kcat (G3P)” value in assay [6] and in assay [7] were 8.9 ± 0.8 S^−1 and 9.5 ± 0.8 S^−1, respectively.
Take `O=CCO` [glycoaldehyde]: the “reduced affinity for glycoaldehyde” value in assay [2] (setting [12]) is on record as “more than 3 fold”.
Consider `CC(=O)CO` [hydroxyacetone], for which, in assay [2] (setting [12]), the “reduced catalytic efficiency on hydroxyacetone” value is recorded as “more than 3 fold”.
As to `O=P(O)(O)OC[C@H]1OC(O)[C@H](O)[C@@H]1O` (stereo partly shown) [ribose 5-phosphate], the Km in assay [8] is 830 µM; in assay [1] (setting [10]), 1400 µM; in assay [5] (setting [10]), 120 µM; in assay [9], 4400 µM.
`O=C(CO)[C@@H](O)[C@H](O)[C@H](O)[C@H](O)COP(=O)(O)O` [sedoheptulose 7-phosphate]: the Km in [1] (setting [11]) was 4000 µM.
As for `O=C(CO)[C@@H](O)[C@H](O)COP(=O)(O)O` [xylulose 5-phosphate], the Km in [1] (setting [10]) is 160 µM; in assay [5] (setting [10]), 150 µM; in [4] (read-out: Km for xylulose 5-phosphate), 33.3 µM.
